PubChem BioAssay (NCI)
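Tested at 5 concentrations; 48 h exposure; 96-well plates; endpoints linearly interpolated, else capped at highest concentration. TGI: concentration producing complete growth inhibition.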

Tests used:
Assay in all cases: NCI anticancer screen, dose series, 48 h
[1] = tested on: K-562 leukemia
[2] = tested on: M14 melanoma
[3] = tested on: PC-3 prostate
[4] = tested on: DU-145 prostate
[5] = tested on: IGROV1 ovarian
[6] = tested on: MDA-N
[7] = tested on: CAKI-1 renal
[8] = tested on: U251 CNS
[9] = tested on: NCI-H460 lung
[10] = tested on: SK-OV-3 ovarian
[11] = tested on: SNB-19 CNS
[12] = tested on: HOP-92 NSCLC
[13] = tested on: HS 578T breast
[14] = tested on: HOP-62 NSCLC
[15] = tested on: UO-31 renal
[16] = tested on: EKVX NSCLC
[17] = tested on: KM12 colon
[18] = tested on: NCI/ADR-RES ovarian
[19] = tested on: TK-10 renal
[20] = tested on: CCRF-CEM leukemia
[21] = tested on: UACC-257 melanoma
[22] = tested on: SR leukemia
[23] = tested on: OVCAR-8 ovarian
[24] = tested on: MCF7 breast
[25] = tested on: A549 NSCLC
[26] = tested on: SK-MEL-28 melanoma
[27] = tested on: RPMI-8226 leukemia
[28] = tested on: ACHN renal
[29] = tested on: HCC-2998 colon
[30] = tested on: SK-MEL-5 melanoma
[31] = tested on: SW-620 colon
[32] = tested on: OVCAR-4 ovarian
[33] = tested on: SF-268 CNS
[34] = tested on: 786-0 renal
[35] = tested on: MOLT-4 leukemia
[36] = tested on: HCT-116 colon
[37] = tested on: COLO 205 colon
[38] = tested on: NCI-H23 lung
[39] = tested on: T-47D breast
[40] = tested on: HL-60(TB) leukemia
[41] = tested on: MALME-3M melanoma
[42] = tested on: RXF 393 renal
[43] = tested on: SF-295 CNS
[44] = tested on: HT29 colon
[45] = tested on: HCT-15 colon
[46] = tested on: SNB-75 CNS
[47] = tested on: A498 renal
[48] = tested on: OVCAR-5 ovarian
[49] = tested on: SN12C renal
[50] = tested on: MDA-MB-231 breast
[51] = tested on: UACC-62 melanoma

SMILES: CN1CCCCC(C#N)(c2ccccc2)CC1 (configuration not stated)
- TGI [1]: > 100 µM
- TGI [2]: > 100 µM
- TGI [3]: > 100 µM
- TGI [4]: > 100 µM
- TGI [5]: > 100 µM
- TGI [6]: > 100 µM
- TGI [7]: > 100 µM
- TGI [8]: > 100 µM
- TGI [9]: > 100 µM
- TGI [10]: > 100 µM
- TGI [11]: > 100 µM
- TGI [12]: > 100 µM
- TGI [13]: > 100 µM
- TGI [14]: > 100 µM
- TGI [15]: > 100 µM
- TGI [16]: > 100 µM
- TGI [17]: > 100 µM
- TGI [18]: > 100 µM
- TGI [19]: > 100 µM
- TGI [20]: > 100 µM
- TGI [21]: > 100 µM
- TGI [22]: > 100 µM
- TGI [23]: > 100 µM
- TGI [24]: > 100 µM
- TGI [25]: > 100 µM
- TGI [26]: > 100 µM
- TGI [27]: > 100 µM
- TGI [28]: > 100 µM
- TGI [29]: > 100 µM
- TGI [30]: > 100 µM
- TGI [31]: > 100 µM
- TGI [32]: > 100 µM
- TGI [33]: > 100 µM
- TGI [34]: > 100 µM
- TGI [35]: > 100 µM
- TGI [36]: > 100 µM
- TGI [37]: > 100 µM
- TGI [38]: > 100 µM
- TGI [39]: > 100 µM
- TGI [40]: > 100 µM
- TGI [41]: > 100 µM
- TGI [42]: > 100 µM
- TGI [43]: > 100 µM
- TGI [44]: > 100 µM
- TGI [45]: > 100 µM
- TGI [46]: > 100 µM
- TGI [47]: > 100 µM
- TGI [48]: > 100 µM

SMILES: O=[N+]([O-])c1ccc(/C=N/Nc2nnc3c4ccccc4c4ncccc4c3n2)o1
- TGI [1]: > 10 µM
- TGI [49]: > 10 µM
- TGI [2]: > 10 µM
- TGI [3]: > 10 µM
- TGI [4]: > 10 µM
- TGI [5]: > 10 µM
- TGI [6]: > 10 µM
- TGI [7]: > 10 µM
- TGI [10]: > 10 µM
- TGI [14]: > 10 µM
- TGI [50]: > 10 µM
- TGI [16]: > 10 µM
- TGI [17]: > 10 µM
- TGI [51]: > 10 µM
- TGI [19]: > 10 µM
- TGI [20]: > 10 µM
- TGI [21]: > 10 µM
- TGI [22]: > 10 µM
- TGI [23]: > 10 µM
- TGI [24]: > 10 µM
- TGI [25]: > 10 µM
- TGI [26]: > 10 µM
- TGI [27]: > 10 µM
- TGI [29]: > 10 µM
- TGI [30]: > 10 µM
- TGI [31]: > 10 µM
- TGI [33]: > 10 µM
- TGI [34]: > 10 µM
- TGI [35]: > 10 µM
- TGI [37]: > 10 µM
- TGI [38]: > 10 µM
- TGI [39]: > 10 µM
- TGI [40]: > 10 µM
- TGI [41]: > 10 µM
- TGI [42]: > 10 µM
- TGI [43]: > 10 µM
- TGI [44]: > 10 µM
- TGI [45]: > 10 µM
- TGI [46]: > 10 µM
